Here are results for one molecule from ChEMBL document CHEMBL4699451, “Discovery of BIIB068: A Selective, Potent, Reversible Bruton's Tyrosine Kinase Inhibitor as an Orally Efficacious Agent for Autoimmune Diseases” (J Med Chem, 2020).

Structures are written as SMILES.

Data set [1] addresses Tyrosine-protein kinase BTK (Mus musculus, UniProt P35991). Briefly: Inhibition of BTK in DBA1 mouse whole blood assessed as reduction in BTK phosphorylation. The class given is tissue-based.
Data set [2] is described as follows: AUC in cynomolgus monkey at 5 mg/kg, po. Format: ADME, organism-based, Macaca fascicularis. Also on record: dose 5 mg/kg. As to conditions: in vivo.

Tyrosine-protein kinase BTK, sequence (P35991 whole entry): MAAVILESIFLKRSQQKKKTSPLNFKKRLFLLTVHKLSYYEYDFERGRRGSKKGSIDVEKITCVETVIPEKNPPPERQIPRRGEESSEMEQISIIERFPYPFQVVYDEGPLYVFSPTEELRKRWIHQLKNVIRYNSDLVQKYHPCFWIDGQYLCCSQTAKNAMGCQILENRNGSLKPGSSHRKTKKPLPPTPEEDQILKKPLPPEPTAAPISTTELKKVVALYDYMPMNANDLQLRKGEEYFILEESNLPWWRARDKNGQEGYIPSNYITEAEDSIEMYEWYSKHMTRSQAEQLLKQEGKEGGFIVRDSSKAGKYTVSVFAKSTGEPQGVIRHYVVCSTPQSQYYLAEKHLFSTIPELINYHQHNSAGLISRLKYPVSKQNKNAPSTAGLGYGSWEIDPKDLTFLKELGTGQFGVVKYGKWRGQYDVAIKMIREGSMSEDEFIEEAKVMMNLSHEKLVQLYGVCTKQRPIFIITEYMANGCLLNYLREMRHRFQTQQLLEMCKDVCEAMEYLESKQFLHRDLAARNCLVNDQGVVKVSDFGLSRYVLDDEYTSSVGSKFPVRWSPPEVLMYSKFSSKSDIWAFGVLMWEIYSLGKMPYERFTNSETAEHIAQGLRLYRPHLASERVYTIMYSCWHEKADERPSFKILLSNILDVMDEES

What is called IC50 is the concentration needed to halve the response being measured. Broadly, the AUC is concentration integrated over time. Take `Cc1cc(-c2ccnc(Nc3cnn(C)c3)n2)ccc1CNC(=O)N1CC(OC(C)C)C1`: the IC50 in data set [1] is 170 nM. Also, in data set [2], the AUC was 2350 ng·h/mL.
